Where a name gives a salt, the structure may show the parent alone.

Sequence of recombinant human HPK1 (Q92918 whole entry): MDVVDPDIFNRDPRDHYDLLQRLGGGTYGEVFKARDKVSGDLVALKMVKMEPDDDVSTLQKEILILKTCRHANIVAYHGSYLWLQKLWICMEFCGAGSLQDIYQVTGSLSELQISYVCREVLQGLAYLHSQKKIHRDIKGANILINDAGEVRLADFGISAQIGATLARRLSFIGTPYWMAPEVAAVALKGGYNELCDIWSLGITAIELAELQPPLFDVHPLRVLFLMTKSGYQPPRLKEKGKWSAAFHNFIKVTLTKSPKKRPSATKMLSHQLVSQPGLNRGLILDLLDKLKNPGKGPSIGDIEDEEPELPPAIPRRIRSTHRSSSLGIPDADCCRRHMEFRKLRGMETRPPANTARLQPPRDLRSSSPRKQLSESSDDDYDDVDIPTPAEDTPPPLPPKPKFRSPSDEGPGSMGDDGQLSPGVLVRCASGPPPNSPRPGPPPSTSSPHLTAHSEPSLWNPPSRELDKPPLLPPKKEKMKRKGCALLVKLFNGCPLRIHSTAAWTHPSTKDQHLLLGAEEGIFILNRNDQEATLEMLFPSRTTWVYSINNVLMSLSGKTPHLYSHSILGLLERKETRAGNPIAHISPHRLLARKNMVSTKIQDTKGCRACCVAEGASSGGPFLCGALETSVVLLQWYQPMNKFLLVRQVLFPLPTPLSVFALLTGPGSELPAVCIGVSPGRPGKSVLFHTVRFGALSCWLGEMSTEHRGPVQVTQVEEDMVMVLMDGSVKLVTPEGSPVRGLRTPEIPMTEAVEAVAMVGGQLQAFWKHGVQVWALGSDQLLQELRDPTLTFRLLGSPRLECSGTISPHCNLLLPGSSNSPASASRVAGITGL

This assay deals with recombinant human HPK1 (Homo sapiens (Human), UniProt Q92918). Kind of assay: HPK1 kinase assay (ADP-Glo). The assay is classed as biochemical. The following applies: 25 μM ATP, MBP substrate. The protocol:
HPK1 kinase activity was measured by Promega's ADP-Glo™ kinase assay. In this assay, 5 ng of recombinant human HPK1 (signalchem) is incubated with 5 μL of compounds (0.5% DMSO), 5 μL of MBP (0.5 μg/μl) and 5 μL of ATP (25 μM) in buffer (40 mM Tris, 7.5; 20 mM MgCl2; 0.1 mg/ml BSA; 5 μM DTT). The assay was started by incubating the reaction mixture in a 96-well plate at 30′ C for 40 minutes. After the incubation, 25 uL ADP-Glo reagent was added and the reaction was incubated at room temperature for 40-min to stop the reaction and degrade residual ATP. The ADP product was then converted to ATP by adding 50 uL per well of detection reagent. Luminescence was detected after 30-min room temperature incubation with the Molecular device I3X plate reader. The IC50 values were calculated from a series of percent inhibition values determined at a range of inhibitor concentration using software routines as implemented in the GraphPad Prism 7 software and SigmaPlot13.0.
For orientation: In ADP-Glo the light output rises with the ADP produced.
For orientation: IC50 means the concentration that inhibits the measured activity by half. `C=CC(=O)Nc1cc2[nH]ncc2c(-c2ccc3nc(NC(=O)[C@@H]4C[C@@H]4F)cn3c2)c1C` [Example 289, (1S,2S)-N-(6-(6-acrylamido-5-methyl-1H-indazol-4-yl)imidazo[1,2-a]pyridin-2-yl)-2-fluorocyclopropane-1-carboxamide]: the IC50 is greater than 1 µM.

Regarding `CSc1c(F)cc2[nH]ncc2c1-c1ccn2nc(NC(=O)[C@H]3C[C@H]3F)cc2c1` [Example 573, (1R,2R)-2-fluoro-N-(5-(6-fluoro-5-(methylthio)-1H-indazol-4-yl)pyrazolo[1,5-a]pyridin-2-yl)cyclopropane-1-carboxamide], the IC50 is less than 0.1 µM.

For `CC(N)c1c(F)c(Cl)c(-c2ccc3nc(NC(=O)[C@@H]4C[C@@H]4F)cn3c2)c2cn[nH]c12` (stereo partly drawn) [Example 399, (1S,2S)-N-(6-(7-(1-aminoethyl)-5-chloro-6-fluoro-1H-indazol-4-yl)imidazo[1,2-a]pyridin-2-yl)-2-fluorocyclopropane-1-carboxamide], the IC50 was less than 0.1 µM.

As for `C[S+]([O-])c1c(F)cc2[nH]ncc2c1-c1cc2sc(NC(=O)[C@@H]3C[C@@H]3F)nc2cn1` (stereo partly drawn) [Example 220, (1S,2S)-2-fluoro-N-(6-(6-fluoro-5-(methylsulfinyl)-1H-indazol-4-yl)thiazolo[4,5-c]pyridin-2-yl)cyclopropane-1-carboxamide], the IC50 was greater than 1 µM.

As to `CN(C(=O)O)C1CN(c2c(F)c(Cl)c(-c3ccc4nc(NC(=O)[C@@H]5C[C@@H]5F)sc4c3)c3cn[nH]c23)C1` [Example 89, (1-(5-chloro-6-fluoro-4-(2-((1S,2S)-2-fluorocyclopropane-1-carboxamido)benzo[d]thiazol-6-yl)-1H-indazol-7-yl)azetidin-3-yl)(methyl)carbamic acid], the IC50 is less than 0.1 µM.

For `CCOc1c(F)c(CC)c(-c2ccc3nc(NC(=O)[C@@H]4C[C@@H]4F)sc3n2)c2cn[nH]c12` [Example 178, (1S,2S)-N-(5-(7-ethoxy-5-ethyl-6-fluoro-1H-indazol-4-yl)thiazolo[5,4-b]pyridin-2-yl)-2-fluorocyclopropane-1-carboxamide], the IC50 is less than 0.1 µM.

On to `CCc1c(F)c(SCC(=O)O)c2[nH]ncc2c1-c1ccc2nc(NC(=O)[C@@H]3C[C@@H]3F)sc2n1` [Example 168, 2-((5-ethyl-6-fluoro-4-(2-((1S,2S)-2-fluorocyclopropane-1-carboxamido)thiazolo[5,4-b]pyridin-5-yl)-1H-indazol-7-yl)thio)acetic acid], for which the IC50 lay in the range of 0.101 to 0.5 µM.

`CCNC(=O)C(C)c1c(F)c(Cl)c(-c2ccc3nc(NC(=O)[C@@H]4C[C@@H]4F)cn3c2)c2cn[nH]c12` (stereo partly drawn) [Example 445, (1S,2S)-N-(6-(5-chloro-7-(1-(ethylamino)-1-oxopropan-2-yl)-6-fluoro-1H-indazol-4-yl)imidazo[1,2-a]pyridin-2-yl)-2-fluorocyclopropane-1-carboxamide]: the IC50 is less than 0.1 µM.

With `O=C(Nc1cn2cc(-c3c(Cl)ccc4[nH]ncc34)ccc2n1)[C@@H]1C[C@@H]1F` [Example 237, (1S,2S)-N-(6-(5-chloro-1H-indazol-4-yl)imidazo[1,2-a]pyridin-2-yl)-2-fluorocyclopropane-1-carboxamide], the IC50 is less than 0.1 µM.

Take `O=C(Nc1cn2cc(-c3c(Cl)c(F)c(C4CCCC4)c4[nH]ncc34)ccc2n1)[C@@H]1C[C@@H]1F` [Example 406, (1S,2S)-N-(6-(5-chloro-7-cyclopentyl-6-fluoro-1H-indazol-4-yl)imidazo[1,2-a]pyridin-2-yl)-2-fluorocyclopropane-1-carboxamide]: the IC50 is less than 0.1 µM.

As to `C=CC(=O)Nc1cc(Cl)c(-c2ccc3nc(NC(=O)[C@@H]4C[C@@H]4F)cn3c2)c2cn[nH]c12` [Example 276, (1S,2S)-N-(6-(7-acrylamido-5-chloro-1H-indazol-4-yl)imidazo[1,2-a]pyridin-2-yl)-2-fluorocyclopropane-1-carboxamide], the IC50 is less than 0.1 µM.

Take `CN1CCN(c2c(F)c(Cl)c(-c3ccc4nc(NC(=O)[C@@H]5C[C@@H]5F)sc4c3)c3cn[nH]c23)CC1` [Example 75, (1S,2S)-N-(6-(5-chloro-6-fluoro-7-(4-methylpiperazin-1-yl)-1H-indazol-4-yl)benzo[d]thiazol-2-yl)-2-fluorocyclopropane-1-carboxamide]: the IC50 was in the range of 0.101 to 0.5 µM.

For the compound `CNNc1c(F)c(Cl)c(-c2ccn3nc(NC(=O)[C@@H]4C[C@@H]4F)cc3c2)c2cn[nH]c12` [Example 553, (1S,2S)-N-(5-(5-chloro-6-fluoro-7-(2-methylhydrazineyl)-1H-indazol-4-yl)pyrazolo[1,5-a]pyridin-2-yl)-2-fluorocyclopropane-1-carboxamide], the IC50 was less than 0.1 µM.

Take `CCNc1c(F)c(Cl)c(-c2ccn3nc(NC(=O)[C@@H]4C[C@@H]4F)cc3c2)c2cn[nH]c12` [Example 496, (1S,2S)-N-(5-(5-chloro-7-(ethylamino)-6-fluoro-1H-indazol-4-yl)pyrazolo[1,5-a]pyridin-2-yl)-2-fluorocyclopropane-1-carboxamide]: the IC50 was less than 0.1 µM.

Turning to `O=C(Nc1nc2ccc(-c3c(C(F)(F)F)c(F)cc4[nH]ncc34)cc2s1)[C@@H]1C[C@@H]1F` [Example 50, (1S,2S)-2-fluoro-N-(6-(6-fluoro-5-(trifluoromethyl)-1H-indazol-4-yl)benzo[d]thiazol-2-yl)cyclopropane-1-carboxamide], the IC50 was less than 0.1 µM.

For `O=C(Nc1cc2cc(-c3c(CO)ccc4[nH]ncc34)ccn2n1)[C@@H]1C[C@@H]1F` [Example 461, (1S,2S)-2-fluoro-N-(5-(5-(hydroxymethyl)-1H-indazol-4-yl)pyrazolo[1,5-a]pyridin-2-yl)cyclopropane-1-carboxamide], the IC50 was greater than 1 µM.

In the case of `O=C(O)c1c(F)c(Cl)c(-c2ccc3nc(NC(=O)[C@@H]4C[C@@H]4F)sc3c2)c2cn[nH]c12` [Example 121, 5-chloro-6-fluoro-4-(2-((1S,2S)-2-fluorocyclopropane-1-carboxamido)benzo[d]thiazol-6-yl)-1H-indazole-7-carboxylic acid], the IC50 was greater than 1 µM.

As for `CCc1c(F)c(SC)c2[nH]ncc2c1-c1ccn2nc(NC(=O)[C@@H]3C[C@@H]3F)cc2c1` [Example 513, (1S,2S)-N-(5-(5-ethyl-6-fluoro-7-(methylthio)-1H-indazol-4-yl)pyrazolo[1,5-a]pyridin-2-yl)-2-fluorocyclopropane-1-carboxamide dihydrochloride], the IC50 was less than 0.1 µM.

For `Cc1c(F)c(C(F)(F)F)c2[nH]ncc2c1-c1ccc2nc(NC(=O)[C@@H]3C[C@@H]3F)sc2n1` [Example 205, (1S,2S)-2-fluoro-N-(5-(6-fluoro-5-methyl-7-(trifluoromethyl)-1H-indazol-4-yl)thiazolo[5,4-b]pyridin-2-yl)cyclopropane-1-carboxamide], the IC50 is less than 0.1 µM.

In the case of `CN(c1ccncn1)c1c(F)c(Cl)c(-c2ccc3nc(NC(=O)[C@@H]4C[C@@H]4F)cn3c2)c2cn[nH]c12` [Example 348, (1S,2S)-N-(6-(5-chloro-6-fluoro-7-(methyl(pyrimidin-4-yl)amino)-1H-indazol-4-yl)imidazo[1,2-a]pyridin-2-yl)-2-fluorocyclopropane-1-carboxamide], the IC50 is less than 0.1 µM.

Turning to `Cc1c(F)c(F)c2[nH]nc(F)c2c1-c1ccc2nc(NC(=O)[C@@H]3C[C@@H]3F)sc2c1` [Example 55, (1S,2S)-2-fluoro-N-(6-(3,6,7-trifluoro-5-methyl-1H-indazol-4-yl)benzo[d]thiazol-2-yl)cyclopropane-1-carboxamide], the IC50 fell in the range of 0.101 to 0.5 µM.

(Values after US11649255B2, “Indazoles as hematopoietic progenitor kinase 1 (HPK1) inhibitors and methods using same” (1st Biotherapeutics, Inc., priority 2020, dated 2023).)
